Here are results for 15 compounds from patent EP0255028A2 (priority 1986, dated 1988).

Experiment [1] concerns the target Flunitrazopam-Bindungstest. Description: Flunitrazepam binding test (FNB). The settings on record: read-out: IK50-Wert FNB.
For experiment [2], the system named is durch PAF induzierte Aggregation von Humanthrambozyten. Nature of the experiment: Inhibition of PAF-induced platelet aggregation in vitro (Born and Cross method). The experiment is classed as cell-based. The settings on record: Homo sapiens. The source says: 1. In vitro Untersuchun^qen: Hemmung der Blutplättchen-Aqqreqation
Zur Bestimmung der PAF-antagonistischen Wirkung von Substanzen wurde die durch PAF induzierte Aggregation von Humanthrambozyten in vitro verwendet. Zur Gewinnung von thrombozytenreichem Plasma (TRP) erfolgt die Blutentnahme aus einer nicht gestauten Vene mit Hilfe einer Plastikspritze, in der sich 3,8 %ige Natriumcitratlösung befindet. Das Verhältnis zwischen Natriumcitratlösung und Blut beträgt 1:9. Nach vorsichtiger Durchmischung wird das Citratblut bei 150 x g (1200 U/min) 20 Minuten lang zentrifugiert. Die Messung der Thrombozytenaggregation erfolgt nach dem von Born und Cross ausgearbeiteten Verfahren (G. V. R. Born und M.J. Cross, J. Physiol. 168, 178 (1963)), wobei dem TRP unter ständigem Rühren PAF als Auslöser der Aggregation zugesetzt wird.
Die Prüfsubstanz wird jeweils 2 - 3 Minuten vor Auslösung der Aggregation in einem Volumen von 10 µl zugesetzt. Als Lösungsmittel dienen entweder Aqua.dest., Ethanol und/oder Dimethylsulgoxyd. Kontrollansätze erhalten entsprechende Volumina dieser Lösungsmittel. Nach Registrierung der Ausgangsabsorption (2-3 Minuten) wird die Aggregation mit PAF (5 x 10^-8M) induziert.
Zur Beurteilung von Substanzeffekten wird das Maximum der ersten Aggregationswelle verwendet. Die durch PAF induzierte maximale Absorptionsrate maximale Aggregation x 100 %) wird jeweils gleichzeitig in einem Parallelansatz (= Kontrollansatz in einem der Kanäle des 2 Kanal-Aggregometers) zu jedem Testansatz (zweiter Kanal) mitgeprüft und als 100 %-Wert verwendet.
Der unter dem Einfluß der Testsubstanz erreichte Aggregationswert wird als 100 % angegeben.
Jede Prüfsubstanz wird bei Konzentrationen von 10^-3 bis 10^-8M mit einem Stichprobenumfang von jeweils n= 4 hinsichtlich einer hemmenden Wirkung auf die durch PAF induzierte Thrombozytenaggregation untersucht. Danach wird eine Konzentrations-Wirkungskurve anhand von 3 Konzentrationen erstellt und die IK50 (Konzentration bei einer 50%igen Aggregationsheinmung) ermittelt. Die IK-Werte von Verbindungen der allgemeinen Formel I bewegen sich im allgemeinen um Werte, die kleiner als 9 µM sind.

[3] abbreviates: read-out: IK50 (Konzentration bei einer 50%igen Aggregationshemmung).

Where two headings read alike, the source gives them in different places. Some results are limits rather than exact numbers.

Regarding `Cc1cnc2n1-c1ccc(OCCCN3CCOCC3)cc1C(c1ccccc1)=NC2` [(l)], the values for the IC50 in experiment [1] and in experiment [2] (read-out: IK50-Wert PAF) were greater than 5 µM and 0.1 µM, respectively. For `Cc1nnc2n1-c1ccc(C3=NC(C)(C)CO3)cc1C(c1ccccc1Cl)=NC2` [(f)], in that order: 0.8 µM and 0.4 µM. For the compound `Cc1nnc2n1-c1ccc(Cl)cc1C(c1ccccc1)=NC2` [Alprazolam, reference compound], the IC50 in experiment [1] was found to be 0.0055 µM; in experiment [2] (setting [3]), 14 µM; in experiment [2] (read-out: IK50-Wert PAF), 14 µM. Consider `Cc1nnc2n1-c1ccc(C(=O)NCCN3CCOCC3)cc1C(c1ccccc1Cl)=NC2` [(g)], for which the IC50 in experiment [1] is greater than 5 µM; in experiment [2] (read-out: IK50-Wert PAF), 0.9 µM. `Cc1cnc2n1-c1ccc(OCc3cccnc3)cc1C(c1ccccc1)=NC2` (atropisomer, axis not shown) [(m)]: the IC50 in experiment [2] (read-out: IK50-Wert PAF) amounted to 0.1 µM. For `CCOC(=O)CCCOc1ccc2c(c1)C(c1ccccc1Cl)=NCc1nnc(C)n1-2` [(a), 8-(3-Ethoxycarbonyl-propyloxy)-1-Methyl-6-(2-chlorphenyl)-4H-(1,2,4]triazolo(4,3-a][1,4]benzodiazepin], the IC50 in experiment [1] came to 0.57 µM; in experiment [2] (read-out: IK50-Wert PAF) it was 1.3 µM. For `Cc1nnc2n1-c1ccc(OCCN3CCOCC3)cc1C(c1ccccc1Cl)=NC2` [(d)], in that order: 2.68 µM and 0.3 µM.

Consider `Cc1nnc2n1-c1ccc(OCCN3C(=O)c4ccccc4C3=O)cc1C(c1ccccc1Cl)=NC2` [(e)], for which the IC50 in experiment [2] (read-out: IK50-Wert PAF) turned out to be 0.3 µM. The same measure, in the same setting: then `Cc1nnc2n1-c1ccc(C(=O)OCCCN(C)C)cc1C(c1ccccc1Cl)=NC2` [(h)], with 1.2 µM. `Cc1nnc2n1-c1ccc(OCc3cccnc3)cc1C(c1ccccc1)=NC2` [(k)]: the IC50 in experiment [1] was found to be 1.42 µM; in experiment [2] (read-out: IK50-Wert PAF), 0.2 µM. Take `Cc1nnc2n1-c1ccc(OCC(=O)NCC(C)C)cc1C(c1ccccc1Cl)=NC2` [(b)]: the results for the IC50 in experiment [1] and in experiment [2] (read-out: IK50-Wert PAF) were 0.04 µM and 0.4 µM, respectively.

In the case of `Cc1nnc2n1-c1ccc(OCCCN3CCOCC3)cc1C(c1ccccc1)=NC2` [(j)], the IC50 is greater than 5 µM in experiment [1] and 0.1 µM in experiment [2] (read-out: IK50-Wert PAF). Regarding `Cc1nnc2n1-c1ccc(OCC(=O)NC3CCN(C)CC3)cc1C(c1ccccc1Cl)=NC2` [(c)], the IC50 in experiment [1] was 2.16 µM; in experiment [2] (read-out: IK50-Wert PAF) it was 0.8 µM. For `Cc1nnc2n1-c1ccc(OCCN3CCOCC3)cc1C(c1ccccc1Cl)NC2` (centres unmarked) [(i)], in that order: 4.55 µM and 0.4 µM. `Cc1nnc2n1-c1ccc(Cl)cc1C(c1ccccc1Cl)=NC2` [Triazolam, reference compound]: the figures for the IC50 in experiment [1], in experiment [2] (setting [3]) and in experiment [2] (read-out: IK50-Wert PAF) were 0.0014 µM, 9 µM and 9 µM, respectively.
